Measurements as given in patent publication US20240316043A1, “BROMODOMAIN INHIBITORS FOR CANCER THERAPY” (University of Tennessee Research Foundation, priority 2023, published 2024).
“Also recorded” adds a separate entry of the source.

Key:
[1] = molecular target: BRG1/BRM; settings: cited from earlier work
[2] = system: TMZ-sensitive GBM cells and TMZ-resistant GBM cells; settings: cited from earlier work
[3] = system: MT330 cells; assay: γH2Ax immunostaining after bleomycin; assay type: cell-based; settings: FIG. 8
Protocol: After 1 hr of bleomycin treatment cell death, cells were fixed and immunostained for γH2Ax. Analysis of immunostaining was performed on at least 1,000 cells on the Lionheart FX imaging system.
Bleomycin is a chemotherapeutic drug that is used to treat various cancers. […] Thus, the ability of bleomycin to induce DNA damage as evidence by immunostaining of MT330 cells and LN229 with γH2Ax was tested. Quantification of cell staining was determined on the Lionheart FX imaging station.

[4] = system: 12 primary human cell based systems; settings: cited from earlier work
[5] = system: MT330 GBM cells; assay: Cell death ELISA in MT330 GBM cells; assay type: cell-based; settings: for enhancement of TMZ-induced cell death: 10 mM inhibitor in combination with 200 mM of TMZ
Protocol: Control cells were treated with vehicle (DMSO). Cell death was determined at 72 hr after treatment by a cell death ELISA that quantifies histone-complexed DNA fragments. […]
Parental and BRG1 knockout MT330 cells were treated with bleomycin (0.01 μM) and bromodomain inhibitors […]. After 72 hr, cell death was determined by cell death ELISA.
The biological activity of bromodomain inhibitors was assessed for the ability to enhance TMZ-induced cell death. In brief, MT330 cells were treated with […] of bromodomain inhibitors alone, or in combination with […] of TMZ for 72 hrs, and GBM cell death was determined by a commercial ELISA.

[6] = system: LN229 GBM cells; assay: γH2Ax immunostaining after TMZ; assay type: cell-based; design: dose or concentration left out as unconfirmed; settings: 24 hrs, FIG. 11
Protocol: After treatment for 24 hrs, cells were fixed and immunostained for gH2Ax. Analysis of immunostaining was performed on a laser confocal microscope.
As TMZ is DNA damaging agent, we tested the ability of various bromodomain inhibitors to enhance TMZ-induced DNA damage as evidence by immunostaining of GBM cells with γH2Ax and examination of the staining on a confocal microscope. γH2AX is the phosphorylated version of the histone variant H2Ax and is a highly specific and sensitive marker for monitoring DNA damage initiation and resolution. […] Similar results were obtained with MT330 GBM cells.

[7] = system: GBM tumors; settings: intracranial GBM animal model; cited from earlier work
[8] = system: T98G GBM cells; assay: IncuCyte live cell imaging proliferation assay; assay type: cell-based; settings: TMZ (500 μM) plus bromodomain inhibitors (20 μM), FIG. 2
Protocol: T98G GBM cells were treated with TMZ (500 μM), the bromodomain inhibitors (20 μM), and cell proliferation was determined by Incucyte live cell assays using cellular confluence method. The data was normalized to the calculated cell confluence at day 0. Control cells were treated with vehicle (DMSO).
To further characterize the biological activity of selected bromodomain inhibitors, YH-IV-129, YH-IV-181 and YH-IV-191, IncuCyte live cell imaging proliferation assays were performed with the highly TMZ-resistant T98G GBM cell line.

[9] = molecular target: T1, BRG1 bromodomain (Homo sapiens, UniProt P51532); assay: Cellular thermal shift assay (CETSA), BRG1 bromodomain construct in MT330 cells; assay type: binding; settings: FIG. 3
T1 construct: expressed in transfected cells; host or cells: MT330 glioblastoma cells
Protocol: After heating over a temperature range from 44.5° C. to 55.6° C. for 5 min, the cells were lysed, placed on ice at 4° C. and then immunoblotted for BRG1 or actin.
(§1) For the CETSA, MT330 cells expressing the BRM (FIG. 6B), or BRG1 (FIG. 6C) the BRD construct were treated with bromodomain inhibitors […] and immunoblotted as indicated.
(§2) After heating over a temperature range from 44.5° C. to 55.6° C. for 5 min, MT330 cells were lysed and then immunoblotted for BRG1 or BRM.

[10] = molecular target: T2, BRM bromodomain (Homo sapiens, UniProt P51531); assay: Cellular thermal shift assay (CETSA), BRM bromodomain construct in MT330 cells; assay type: binding; settings: FIG. 3
T2 construct: expressed in transfected cells; host or cells: MT330 glioblastoma cells
Protocol: as §1, §2

[11] = system: intracranial GBM xenografts (MT330 cells); assay: Orthotopic GBM model, MT330 cells injected into brains of NSG mice; assay type: in vivo
Protocol: MT330 cells (10^6) were injected into the brains of NSG female mice. After tumors were identified by BLI (˜10 days post-injection), mice were IP injected with TMZ (60 mg/Kg body weight) or IV-129 (10 mg/Kg) alone or in combination 3 times per week (5 mice per group) for 2 weeks. […] FIG. 5C Kaplan-Meier analysis of the survival data (5 mice/group) of the brain tumor-bearing mice was performed.
MT330 cells […] were injected into the brains of NSG female mice. After tumors were identified by BLI (˜10 days post-injection), mice were IP injected with TMZ (10 mg/Kg body weight), IV-255 or IV-275 (20 mg/Kg) alone or in combination 3 times per week (5 mice/group).
Luciferase-expressing MT330 cells were injected into the brains of immunocompromised NSG mice. Once tumors were identified by bioluminescence imaging (BLI) at ˜10 days after tumor cell injection, mice were subjected to intraperitoneal injection of TMZ or YH-IV-129 alone, or in combination. At 20 days after initiation of treatment, live animal imaging was performed on an IVIS Lumina instrument. […] The mean survival of control mice was 27 days after cell injection (FIG. 5C).
Luciferase-expressing MT330 cells were injected into the brains of immunocompromised NSG mice. Once tumors were identified by bioluminescence imaging (BLI) at ˜10 days after tumor cell injection, mice were subjected to intraperitoneal injection of TMZ or YH-IV-255 or YH-IV-275 alone, or in combination. […] This is compelling preliminary evidence that these two new compounds have potent anticancer activity in intracranial GBM xenografts when combined with standard-of-care TMZ chemotherapy and that these drugs cross the blood-brain barrier.

[12] = Tolerability in mice not injected with tumor cells; assay type: in vivo; settings: at the drug doses used
[13] = system: T98G GBM cells; assay: Cell death ELISA in TMZ-resistant T98G cells; assay type: cell-based; settings: TMZ (500 μM) and inhibitor (10 μM), 72 hr
Protocol: (§3) After 72 hr, cell death was determined by a commercial cell death ELISA.
(§4) To further test the bioactivity of bromodomain inhibitors, T98G and U87 GBM cell lines were used that are highly resistant to the death inducing activity of TMZ. […] Because of their high TMZ resistance, these cells may serve as cell models for TMZ resistant GBM cancer stem-like cells.

[14] = system: U87 GBM cells; assay: Cell death ELISA in TMZ-resistant U87 cells; assay type: cell-based; settings: U87, TMZ (500 μM) and inhibitor (10 μM), 72 hr, FIG. 4
Protocol: as §3, §4

[15] = vehicle control band disappearing at 49.8° C.

T1 sequence (P51532 1453-1564 limits assumed): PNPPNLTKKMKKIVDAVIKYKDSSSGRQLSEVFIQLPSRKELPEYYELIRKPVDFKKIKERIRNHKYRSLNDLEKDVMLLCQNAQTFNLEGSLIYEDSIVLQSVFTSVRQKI
T2 sequence (P51531 1378-1506 limits assumed): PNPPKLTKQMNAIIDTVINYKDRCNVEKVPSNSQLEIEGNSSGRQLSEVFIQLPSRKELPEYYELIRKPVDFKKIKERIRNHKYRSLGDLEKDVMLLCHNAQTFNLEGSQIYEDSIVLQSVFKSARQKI

O=C(/C=C/N1C[C@H]2C[C@@H]1CN2c1ccccn1)c1ccccc1O [PFI-3]
Kd [1]: < 100 nM
enhancement of antiproliferation activity and cell death-inducing effects of TMZ [2]: enhanced the antiproliferation activity and cell death-inducing effects of temozolomide
γH2Ax staining, PFI-3 alone ([3]; PFI-3 (5 μM) alone): no effect on γH2Ax staining
γH2Ax staining, PFI-3 pretreatment followed by bleomycin ([3]; pretreated for 1 hr with PFI-3 (5 μM) followed by bleomycin (0.5 and 2 μM)): increased number of both γH2Ax positive cells and signal intensity of staining; also recorded: sensitized GBM cells to DNA damage induced by Bleomycin
inhibitory effects against a range of cellular endpoints [4]: inhibitory effects were not observed
enhancement of TMZ-induced cell death ([5]; 72 hrs, FIG. 1): markedly increased the sensitivity of GBM cells to TMZ-induced cell death
cell death, inhibitor alone ([5]; 10 mM of bromodomain inhibitors alone, 72 hrs, FIG. 1): did not induce cell death
γH2Ax staining, inhibitor with TMZ [6]: marked increase in γH2Ax staining
survival of animals bearing GBM tumors treated with TMZ [7]: increase in survival

COc1ccc(N2C[C@H]3C[C@@H]2CN3C(=O)OC(C)(C)C)cc1 [YH-IV-129, (1R,4R)-tert-butyl 5-(4-methoxyphenyl)-2,5-diazabicyclo[2.2.1]heptane-2-carboxylate]
sensitization to the antiproliferative action of TMZ [8]: potently sensitized T98G GBM cells to the antiproliferative action of TMZ
thermostability of the BRG1 BRD ([9]; 30 μM, heating 44.5° C. to 55.6° C. for 5 min, immunoblot): significantly increased the thermostability
temperature at which the BRG1 BRD protein band is undetectable [9, 15]: 54.20 °C
thermostability of the BRM BRD ([10]; heating 44.5° C. to 55.6° C. for 5 min, immunoblot): significantly increased the thermostability
temperature at which the BRM BRD protein band is undetectable [10, 15]: 54.20 °C
mean survival, combination with TMZ ([11]; TMZ (60 mg/Kg) and IV-129 (10 mg/Kg) IP, control mice 27 days after cell injection, FIG. 5C): 48 days
mean survival, either agent alone ([11]; TMZ (60 mg/Kg) or IV-129 (10 mg/Kg) alone IP, control mice 27 days, FIG. 5C): 35 days
tumor size by bioluminescence (BLI) ([11]; combination with TMZ (60 mg/Kg) and IV-129 (10 mg/Kg) IP 3 times per week for 2 weeks, 20 days after treatment, versus either agent alone): much smaller tumors
weight loss ([11]; combination with TMZ, 20 days post-treatment, versus either agent alone, FIG. 5B): weight loss was much lower
crossing of the blood-brain barrier ([11]; inferred from activity in intracranial GBM xenografts): crosses the blood-brain barrier
adverse effects on health, behavior or weight [12]: no adverse effects on the health, behavior or weight of mice
sensitization to cell-death inducing effects of TMZ ([13]; FIG. 4): much more potent than PFI-3
sensitization to cell-death inducing effects of TMZ ([13]; FIG. 4, listed as IV-129): more potent than PFI-3 as a chemosensitizer to TMZ
sensitization to cell-death inducing effects of TMZ [14]: much more potent than PFI-3
sensitization to cell-death inducing effects of TMZ ([14]; listed as IV-129): more potent than PFI-3 as a chemosensitizer to TMZ
enhancement of TMZ-induced cell death ([5]; 72 hrs, FIG. 1): better efficacy than PFI-3; also recorded: markedly enhanced TMZ sensitivity of GBM cells in vitro
enhancement of bleomycin-induced cell death ([5]; bleomycin (0.01 μM) and bromodomain inhibitors (10 μM), 72 hr, FIG. 9): sensitized GBM cells to bleomycin-induced cell death
cell death, inhibitor alone ([5]; bromodomain inhibitors (10 μM) alone, 72 hr, FIG. 9): none of the bromodomain inhibitors (YH-IV-129, YH-IV-255 and YH-IV-275) alone had any death inducing activity
